Source: PubChem BioAssay (NCI)
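Growth conditions: 96-well plates. Treatment: test compound, 48 hours, 5 concentrations. Analysis: linear interpolation between bracketing concentrations; unreached endpoints set to highest concentration. Abbreviation: GI50, concentration required for 50% inhibition of growth. Definition used: TGI = concentration required for complete inhibition of growth.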

Columns and labels:
Assay in all cases: growth of human tumour cells (NCI), 48 h
HCC-2998 colon = tested on: HCC-2998 colon
MALME-3M melanoma = tested on: MALME-3M melanoma
SN12C renal = tested on: SN12C renal
OVCAR-3 ovarian = tested on: OVCAR-3 ovarian
EKVX NSCLC = tested on: EKVX NSCLC
RXF 393 renal = tested on: RXF 393 renal
HCT-116 colon = tested on: HCT-116 colon
PC-3 prostate = tested on: PC-3 prostate
OVCAR-8 ovarian = tested on: OVCAR-8 ovarian
HCT-15 colon = tested on: HCT-15 colon
HT29 colon = tested on: HT29 colon
HL-60(TB) leukemia = tested on: HL-60(TB) leukemia
SK-OV-3 ovarian = tested on: SK-OV-3 ovarian
ACHN renal = tested on: ACHN renal
KM12 colon = tested on: KM12 colon
NCI-H23 lung = tested on: NCI-H23 lung
TK-10 renal = tested on: TK-10 renal
SK-MEL-5 melanoma = tested on: SK-MEL-5 melanoma
SF-539 CNS = tested on: SF-539 CNS
MDA-MB-231 breast = tested on: MDA-MB-231 breast
MDA-MB-468 breast = tested on: MDA-MB-468 breast
SK-MEL-28 melanoma = tested on: SK-MEL-28 melanoma
U251 CNS = tested on: U251 CNS
HS 578T breast = tested on: HS 578T breast
UO-31 renal = tested on: UO-31 renal
T-47D breast = tested on: T-47D breast
SF-268 CNS = tested on: SF-268 CNS
MCF7 breast = tested on: MCF7 breast
MDA-MB-435 = tested on: MDA-MB-435
HOP-92 NSCLC = tested on: HOP-92 NSCLC
CCRF-CEM leukemia = tested on: CCRF-CEM leukemia
DU-145 prostate = tested on: DU-145 prostate
A549 NSCLC = tested on: A549 NSCLC
786-0 renal = tested on: 786-0 renal
CAKI-1 renal = tested on: CAKI-1 renal
M14 melanoma = tested on: M14 melanoma
UACC-257 melanoma = tested on: UACC-257 melanoma
HOP-62 NSCLC = tested on: HOP-62 NSCLC
RPMI-8226 leukemia = tested on: RPMI-8226 leukemia
UACC-62 melanoma = tested on: UACC-62 melanoma
SNB-75 CNS = tested on: SNB-75 CNS
MOLT-4 leukemia = tested on: MOLT-4 leukemia
SF-295 CNS = tested on: SF-295 CNS
NCI-H522 lung = tested on: NCI-H522 lung
OVCAR-5 ovarian = tested on: OVCAR-5 ovarian
A498 renal = tested on: A498 renal
IGROV1 ovarian = tested on: IGROV1 ovarian
NCI-H226 lung = tested on: NCI-H226 lung
OVCAR-4 ovarian = tested on: OVCAR-4 ovarian
SW-620 colon = tested on: SW-620 colon
SNB-19 CNS = tested on: SNB-19 CNS
COLO 205 colon = tested on: COLO 205 colon
SR leukemia = tested on: SR leukemia
LOX IMVI melanoma = tested on: LOX IMVI melanoma
NCI-H460 lung = tested on: NCI-H460 lung
BT-549 breast = tested on: BT-549 breast
SK-MEL-2 melanoma = tested on: SK-MEL-2 melanoma
K-562 leukemia = tested on: K-562 leukemia

`COc1ccccc1[C@H]1C(C(=O)c2ccc(Cl)cc2)C2(N[C@@H]1c1ccccc1)C(=O)Nc1ccccc12` (stereo partly specified) gave a GI50 (HCC-2998 colon) of 2.1 µM, a TGI (HCC-2998 colon) of 7.72 µM and a GI50 (MALME-3M melanoma) of 3.36 µM. The TGI (MALME-3M melanoma) was 12.1 µM, the GI50 (SN12C renal) was 1.24 µM and the TGI (SN12C renal) was 2.9 µM. It also gave a GI50 (OVCAR-3 ovarian) of 2.19 µM, a TGI (OVCAR-3 ovarian) of 12.1 µM and a GI50 (EKVX NSCLC) of 2.13 µM. It also gave a TGI (EKVX NSCLC) of 61.5 µM, a GI50 (RXF 393 renal) of 1.32 µM and a TGI (RXF 393 renal) of 3.51 µM. The GI50 (HCT-116 colon) was 1.5 µM, the TGI (HCT-116 colon) was 4.66 µM and the GI50 (PC-3 prostate) was 1.85 µM. It also gave a TGI (PC-3 prostate) of 13.6 µM, a GI50 (OVCAR-8 ovarian) of 1.94 µM and a TGI (OVCAR-8 ovarian) of 8.55 µM. It also gave a GI50 (HCT-15 colon) of 1.9 µM, a TGI (HCT-15 colon) of 11.5 µM and a GI50 (HT29 colon) of 1.49 µM. It also gave a TGI (HT29 colon) of 4.1 µM, a GI50 (HL-60(TB) leukemia) of 1.42 µM and a TGI (HL-60(TB) leukemia) of 5.48 µM. The GI50 (SK-OV-3 ovarian) was 4.24 µM, the TGI (SK-OV-3 ovarian) was 55.3 µM and the GI50 (ACHN renal) was 1.99 µM. For the same compound, the TGI (ACHN renal) was 22.5 µM, the GI50 (KM12 colon) was 2.45 µM and the TGI (KM12 colon) was 14.6 µM. For the same compound, the GI50 (NCI-H23 lung) was 1.83 µM, the TGI (NCI-H23 lung) was 8.71 µM and the GI50 (TK-10 renal) was 3.68 µM. It also gave a TGI (TK-10 renal) of 33.2 µM, a GI50 (SK-MEL-5 melanoma) of 1.87 µM and a TGI (SK-MEL-5 melanoma) of 6.52 µM. For the same compound, the GI50 (SF-539 CNS) was 2.83 µM, the TGI (SF-539 CNS) was 10.5 µM and the GI50 (MDA-MB-231 breast) was 1.6 µM. It also gave a TGI (MDA-MB-231 breast) of 5.79 µM, a GI50 (MDA-MB-468 breast) of 1.24 µM and a TGI (MDA-MB-468 breast) of 3.85 µM. The GI50 (SK-MEL-28 melanoma) was 4.16 µM, the TGI (SK-MEL-28 melanoma) was 13.2 µM and the GI50 (U251 CNS) was 1.81 µM. The TGI (U251 CNS) was 7.38 µM, the GI50 (HS 578T breast) was 1.67 µM and the TGI (HS 578T breast) was 10.4 µM. It also gave a GI50 (UO-31 renal) of 1.11 µM, a TGI (UO-31 renal) of 12.5 µM and a GI50 (T-47D breast) of 1.97 µM. It also gave a TGI (T-47D breast) of 44.1 µM, a GI50 (SF-268 CNS) of 2.19 µM and a TGI (SF-268 CNS) of 29.8 µM. The GI50 (MCF7 breast) was 1.67 µM, the TGI (MCF7 breast) was 8.88 µM and the GI50 (MDA-MB-435) was 1.48 µM. It also gave a TGI (MDA-MB-435) of 3.73 µM, a GI50 (HOP-92 NSCLC) of 1.79 µM and a TGI (HOP-92 NSCLC) of 5.88 µM. It also gave a GI50 (CCRF-CEM leukemia) of 1.91 µM, a TGI (CCRF-CEM leukemia) of 8.25 µM and a GI50 (DU-145 prostate) of 2.45 µM. The TGI (DU-145 prostate) was 24.9 µM, the GI50 (A549 NSCLC) was 1.99 µM and the TGI (A549 NSCLC) was 12 µM. It also gave a GI50 (786-0 renal) of 2.13 µM, a TGI (786-0 renal) of 10.1 µM and a GI50 (CAKI-1 renal) of 1.23 µM. It also gave a TGI (CAKI-1 renal) of 51.5 µM, a GI50 (M14 melanoma) of 1.81 µM and a TGI (M14 melanoma) of 7.63 µM. The GI50 (UACC-257 melanoma) was 2.63 µM, the TGI (UACC-257 melanoma) was 14 µM and the GI50 (HOP-62 NSCLC) was 3.86 µM. It also gave a TGI (HOP-62 NSCLC) of 14 µM, a GI50 (RPMI-8226 leukemia) of 2.06 µM and a TGI (RPMI-8226 leukemia) of 21.9 µM. It also gave a GI50 (UACC-62 melanoma) of 1.86 µM, a TGI (UACC-62 melanoma) of 8.04 µM and a GI50 (SNB-75 CNS) of 1.13 µM. It also gave a TGI (SNB-75 CNS) of 13.2 µM, a GI50 (MOLT-4 leukemia) of 1.75 µM and a TGI (MOLT-4 leukemia) of 16.1 µM. For the same compound, the GI50 (SF-295 CNS) was 2.39 µM, the TGI (SF-295 CNS) was 12.6 µM and the GI50 (NCI-H522 lung) was 1.24 µM. For the same compound, the TGI (NCI-H522 lung) was 4.17 µM, the GI50 (OVCAR-5 ovarian) was 3.24 µM and the TGI (OVCAR-5 ovarian) was 19.5 µM. It also gave a GI50 (A498 renal) of 4.75 µM, a TGI (A498 renal) of 18 µM and a GI50 (IGROV1 ovarian) of 1.95 µM. It also gave a TGI (IGROV1 ovarian) of 11.6 µM, a GI50 (NCI-H226 lung) of 1.61 µM and a TGI (NCI-H226 lung) of 9.08 µM. For the same compound, the GI50 (OVCAR-4 ovarian) was 2.36 µM, the TGI (OVCAR-4 ovarian) was 31.8 µM and the GI50 (SW-620 colon) was 1.86 µM. It also gave a TGI (SW-620 colon) of 24.4 µM, a GI50 (SNB-19 CNS) of 3.34 µM and a TGI (SNB-19 CNS) of 61.5 µM. It also gave a GI50 (COLO 205 colon) of 2.25 µM, a TGI (COLO 205 colon) of 9.75 µM and a GI50 (SR leukemia) of 1.42 µM. It also gave a TGI (SR leukemia) of 4.26 µM, a GI50 (LOX IMVI melanoma) of 1.55 µM and a TGI (LOX IMVI melanoma) of 6.15 µM. For the same compound, the GI50 (NCI-H460 lung) was 1.21 µM, the TGI (NCI-H460 lung) was 2.89 µM and the GI50 (BT-549 breast) was 1.97 µM. For the same compound, the TGI (BT-549 breast) was 6.57 µM, the GI50 (SK-MEL-2 melanoma) was 1.73 µM and the TGI (SK-MEL-2 melanoma) was 6.06 µM. For the same compound, the GI50 (K-562 leukemia) was 1.78 µM and the TGI (K-562 leukemia) was 44.4 µM.
